This is an account of results in US10690666B2, “Methods and compositions for modulating TH-GM cell function” (National University of Singapore, priority 2014, dated 2020).

Assay [1] deals with naïve CD4+ T cells. As to the kind of experiment: In vitro TH17 differentiation. The following applies: data not shown. The format is cell-based, mouse. Here is the method: CD4^+ T cells were obtained from spleens and lymph nodes by positive selection and magnetic separation (Miltenyi Biotech), followed by purification of naïve CD4^+ T cell population (CD4^+CD25^−CD62L^hiCD44^lo) sorted with FACS Aria. Naïve CD4^+ T cells were stimulated with plate-bound anti-CD3 (3 μg/ml; BD Pharmingen) and anti-CD28 (1 μg/ml; BD Pharmingen) in presence of different combinations of neutralizing antibodies and cytokines for 3˜4 days: for neutral conditions, no addition of any cytokine or neutralizing antibody; for TH1 conditions, IL-12 (10 ng/ml), and anti-IL-4 (10 μg/ml, BD Pharmingen); for TH17 conditions, hTGF-β (3 ng/ml), IL-6 (20 ng/ml), anti-IFN-γ (10 μg/ml, eBioscience), and anti-IL-4 (10 μg/ml); for an alternative TH17 conditions, IL-6 (20 ng/ml), IL-23 (10 ng/ml), IL-1β (10 ng/ml), anti-IFN-γ (10 μg/ml), and anti-IL-4 (10 μg/ml). […] Cells were acquired on the LSR II (BD Biosciences) and analyzed with FlowJo software (Tree Star).
Stat5 deletion (Cd4-cre; Stat5^f/−) mice was reported to develop peripheral lymphopenia, with a reduction of both CD4^+ and CD8^+ T cells (Yao et al., 2006). […] Furthermore, increased frequencies of IL-17^+ and IFN-γ^+ cells were detected among CD4^+ T cells in spleens of Stat5^−/− mice (FIG. 4C), which further support the idea that the resistance to EAE in Stat5^−/− mice is likely independent of TH1 and TH17 generation. […]

In assay [2] the test system is STAT5. As to the kind of experiment: Cytokine-induced STAT5 activation in CD4+ T cells, immunoblotting. The format is cell-based, mouse. To be noted: for STAT5 activation (tyrosine phosphorylation): CD4+ T cells cultured with TGF-β and IL-6 3 days, starved 6 h. How it is done:
(§1) In FIG. 10A, purified CD4^+ T cells were cultured with TGF-β and IL-6 for 3 days, followed by starvation for 6 h. Then cells were treated with various cytokines for 30 min, and pSTAT3 and pSTAT5 was determined by immunoblotting. STAT3 and STAT5 were further detected after stripping. […] The RT-PCR data were normalized to β-Actin. […] The frequencies of GM-CSF^+ and IL-17^+ cells among CD4^+CD44^hi T cells were measured by flow cytometry. *p<0.05.
(§2) FIGS. 17A-17C show flow cytometry of CD25 and CD127 on the surface of naïve CD4^+ T cells or cells activated with anti-CD3 and anti-CD28 at various time points as indicated. […] The RT-PCR data were normalized to β-Actin, and expression in naïve T cells activated for 2 h without cytokine was set to 1.
As shown in FIGS. 18A and 18B, CD4^+ T cells were activated with anti-CD3 and anti-CD28 for 3 days. […] The pTyr-STAT5 and β-Actin were detected by immunoblotting (FIG. 18A). GM-CSF mRNA expression was measured by RT-PCR (FIG. 18B). The RT-PCR data were normalized to β-Actin, and expression in cells without cytokine stimulation was set to 1. The ChIP assay shown in FIG. 18C was performed with normal IgG or STAT5-specific antibody. The binding of antibodies to Csf2 promoter region was detected by RT-PCR.
(§3) Next, the mechanism by which STAT5 regulates GM-CSF expression was investigated. […] Therefore, the effect of these two cytokines on GM-CSF induction in autoreactive T cells was further examined. […] GM-CSF and IL-17 production by CD4^+ T cells were analyzed by intracellular cytokine staining.
Background: In western blotting, separated proteins are transferred to a membrane and probed.

The subject of assay [3] is CD4+CD44hi T cells. As to the kind of experiment: MOG35-55 challenge of splenocytes from immunized mice, GM-CSF expression. The following applies: MOG35-55 (20 μg/ml) plus cytokine, 48 h. The format is cell-based, mouse. Here is the method: as §1, §3
Assay [4] concerns naïve CD4+ T cells. As to the kind of experiment: GM-CSF mRNA expression in naïve CD4+ T cells stimulated with IL-2 or IL-7, RT-PCR. The format is cell-based, mouse. To be noted: anti-CD3 and anti-CD28 plus cytokine. How it is done:
as §2
The primer sequences are available upon request.

The subject of assay [5] is CD62LhiCD44lo and CD62LloCD44hi T cells. As to the kind of experiment: GM-CSF expression in sorted CD62LhiCD44lo and CD62LloCD44hi T cells, RT-PCR. To be noted: anti-CD3 and anti-CD28, cytokine 4 h. The format is cell-based, mouse. How it is done: Splenocytes were obtained from MOG35-55/CFA-immunized Stat5^+/+ and Stat5^−/− mice before disease onset and challenged with MOG35-55 (20 μg/ml) in the absence or presence of IL-7 for 48 h. Frequencies of GM-CSF^+ and IL-17^+ cells among CD4^+CD44^hi T cells were measured by flow cytometry (FIG. 11A). GM-CSF secretion was measured by ELISA (FIG. 11B). Data represent two independent experiments with two to three mice per group. Splenic CD62L^hiCD44^lo and CD62L^loCD44^hi T cells from MOG35-55/CFA-immunized mice were sorted out. Cells were stimulated with anti-CD3 and anti-CD28 in the absence or presence of IL-7 for 4 h and then harvested for the analysis of GM-CSF expression by RT-PCR (FIG. 11C). *p<0.05
Total RNA was extracted from cells with RNeasy kit (Qiagen) according to the manufacturer's instruction. Complementary DNA (cDNA) was synthesized with Superscript reverse transcriptase (Invitrogen). Gene expressions were measured by 7500 real-time PCR system (Applied Biosystems) with SYBR qPCR kit (KAPA). Actinb, Gapdh or Rn18S was used as internal control. The primer sequences are available upon request.
Thus, CD62L^hiCD44^lo and CD62L^loCD44^hi T cells were sorted from Stat5^−/− mice and littermate controls during EAE development, and then activated cells in the presence or absence of IL-7.

In assay [6] the test system is naïve CD4+ T cells. As to the kind of experiment: In vitro TH-GM (GM-CSF-expressing TH) differentiation from naïve CD4+ T cells. In kind it is cell-based, mouse. To be noted: anti-CD3 and anti-CD28 plus cytokine or antibody.
Experimental: Naïve CD4^+ T cells were primed with plate-bound anti-CD3 and soluble anti-CD28 in the presence of a combination of various cytokines and neutralizing antibodies as indicated. GM-CSF, IL-17 and IFN-γ expression was analyzed by intracellular staining (FIG. 13A) or RT-PCR (FIG. 13B)
GM-CSF and IFN-γ expression in naive CD4^+ T cells activated for 72 h with anti-CD3 alone or plus anti-CD28 (FIG. 14A). In FIG. 14B, sorted naïve CD4^+ T cells were stimulated with anti-CD3 and anti-CD28 in the presence of neutralizing antibodies against IL-12 and IFN-γ without or with the addition of IL-6. The frequencies of GM-CSF^+ and IL-17^+ cells were measured by intracellular staining (FIG. 14B). In FIG. 14C, naïve CD4^+ T cells from Stat3^+/+ and Stat3^−/− mice were polarized under conditions as indicated for 72 h. The frequencies of GM-CSF^+ and IL-17^+ cells were analyzed. In FIG. 14D, naïve CD4^+ T cells were activated with anti-CD3 and anti-CD28 in the presence of IL-2 or anti-IL-2. The frequencies of GM-CSF^+, IL-17^+ and IFN-γ^+ cells were analyzed.
Naïve CD4^+ T cells were primed with plate-bound anti-CD3 and soluble anti-CD28 in the presence of various concentration of IL-7 as indicated. GM-CSF and IFN-γ expression was analyzed by intracellular staining (FIG. 15A) or ELISA (FIG. 15B). In FIGS. 15C and 15D, Stat5^+/+ and Stat5^−/− naïve CD4^+ T cells were activated with anti-CD3 and anti-CD28 in the presence IL-7 for 3 days. GM-CSF, IL-17 and IFN-γ expression was analyzed by intracellular cytokine staining (FIG. 15C). GM-CSF secretion was measured by ELISA (FIG. 15D).
In FIG. 22E, naïve CD4^+ T cells were isolated and activated under neutral condition or TH-GM cell-favoring condition with the addition of different concentrations of STAT5 inhibitor for 3 days. GM-CSF and IFN-γ expression was analyzed by intracellular cytokine staining and flow cytometry.
Assay [7] concerns naïve CD4+ T cells. The following applies: El-Behi et al., 2011; cited from earlier work.

“IL-7: cytokine interleukin-7 (R&D Systems)”: the TH17 differentiation result in assay [1] is “not observed to have a demonstrable effect”. Moreover, the “STAT5 activation, Csf2 promoter binding and GM-CSF mRNA in activated CD4+ T cells” value in assay [2] (CD4+ T cells activated 3 days, rested, then cytokine) was “induced STAT5 activation, Csf2 promoter binding and GM-CSF mRNA upregulation”. In assay [2] (cytokine 30 min), the “STAT5 activation (tyrosine phosphorylation)” value was “potently activated STAT5”. The “STAT5 activation in naïve CD4+ T cells” value in assay [2] (naïve CD4+ T cells, cytokine 30 min) is listed as “induced STAT5 activation”. For the same molecule, the “frequency of GM-CSF+ T cells / GM-CSF expression in CD4+CD44hi T cells” value in assay [3] was “significantly promoted GM-CSF expression”. In assay [4], the “GM-CSF mRNA expression in naïve CD4+ T cells” value was “upregulated GM-CSF mRNA expression”. The “GM-CSF expression in CD62LhiCD44lo and CD62LloCD44hi T cells” value in assay [5] was “promoted GM-CSF expression”. Besides, the “GM-CSF-expressing cell differentiation from naïve CD4+ T cells” value (from here on “GM-CSF-expressing cell differentiation”) in assay [6] is reported as “strongly promoted”.
As for “IL-6: cytokine (R&D Systems), essential for TH17 differentiation”, the “GM-CSF-expressing cell differentiation” value in assay [6] is on record as “profound inhibitory effect”.
As for TGF-β: cytokine (R&D Systems), the GM-CSF expression entry in assay [7] is given as “inhibits GM-CSF expression”.
On to IL-1β: cytokine (R&D Systems), for which the “STAT5 activation (tyrosine phosphorylation)” value in assay [2] (cytokine 30 min) is listed as “neither IL-23 nor IL-1β seemed to be potent STAT5 stimulators”. The “GM-CSF-expressing cell differentiation” value in assay [6] is “did not increase GM-CSF-expressing cell differentiation”.

B1: IL-23: cytokine (R&D Systems) (protein, UniProt Q9NPF7 20-189; P29460 23-328, looked up)
Interleukin-23 subunit alpha: RAVPGGSSPAWTQCQQLSQKLCTLAWSAHPLVGHMDLREEGDEETTNDVPHIQCGDGCDPQGLRDNSQFCLQRIHQGLIFYEKLLGSDIFTGEPSLLPDSPVGQLHASLLGLSQLLQPEGHHWETQQIPSLSPSQPWQRLLLRFKILRSLQAFVAVAARVFAHGAATLSP
Interleukin-12 subunit beta: IWELKKDVYVVELDWYPDAPGEMVVLTCDTPEEDGITWTLDQSSEVLGSGKTLTIQVKEFGDAGQYTCHKGGEVLSHSLLLLHKKEDGIWSTDILKDQKEPKNKTFLRCEAKNYSGRFTCWWLTTISTDLTFSVKSSRGSSDPQGVTCGAATLSAERVRGDNKEYEYSVECQEDSACPAAEESLPIEVMVDAVHKLKYENYTSSFFIRDIIKPDPPKNLQLKPLKNSRQVEVSWEYPDTWSTPHSYFSLTFCVQVQGKSKREKKDRVFTDKTSATVICRKNASISVRAQDRYYSSSWSEWASVPCS
As to B1, the “STAT5 activation (tyrosine phosphorylation)” value in assay [2] (cytokine 30 min) is recorded as “neither IL-23 nor IL-1β seemed to be potent STAT5 stimulators”. For the same molecule, the “GM-CSF-expressing cell differentiation” value in assay [6] is listed as “did not increase GM-CSF-expressing cell differentiation”.
